Source: patent US9150526B2, “Biaryl-propionic acid derivatives and their use as pharmaceuticals” (SANOFI, priority 2013, dated 2015)

Each compound was assayed on Recombinant human cathepsin A (assay: Cathepsin A inhibitory activity (Bodipy FL-bradykinin substrate, microfluidic capillary electrophoresis)). Details: read-out: CATH A IC50.
Type: biochemical
Procedure: Pharmacological Tests a) Cathepsin a Inhibitory Activity
Recombinant human cathepsin A (residues 29-480, with a C-terminal 10-His tag; R&D Systems, #1049-SE) was proteolytically activated with recombinant human cathepsin L (R&D Systems, #952-CY). Briefly, cathepsin A was incubated at 10 μg/ml with cathepsin L at 1 μg/ml in activation buffer (25 mM 2-(morpholin-4-yl)-ethanesulfonic acid (MES), pH 6.0, containing 5 mM dithiothreitol (DTT)) for 15 min at 37° C.
The activated cathepsin A was diluted in assay buffer (25 mM MES, pH 5.5, containing 5 mM DTT) and mixed with the test compound (dissolved in assay buffer containing (v/v) 3% DMSO) or, in the control experiments, with the vehicle in a multiple assay plate. After incubation for 15 min at room temperature, as substrate then bradykinin carrying an N-terminal ®Bodipy FL (4,4-difluoro-5,7-dimethyl-4-bora-3a,4a-diaza-s-indacene-3-propionyl) label (JPT Peptide Technologies GmbH; dissolved in assay buffer) was added to the mixture. The final concentration of cathepsin A was 833 ng/ml and the final concentration of labeled bradykinin 2 μM. After incubation for 15 min at room temperature the reaction was stopped by the addition of stop buffer (130 mM 2-(4-(2-hydroxy-ethyl)-piperazin-1-yl)-ethanesulfonic acid, pH 7.4, containing (v/v) 0.013% ®Triton X-100, 0.13% Coating Reagent 3 (Caliper Life Sciences), 6.5% DMSO and 20 μM ebelactone B (Sigma, # E0886)).
Uncleaved substrate and product were then separated by a microfluidic capillary electrophoresis on a LabChip® 3000 Drug Discovery System (12-Sipper-Chip; Caliper Life Sciences) and quantified by determination of the respective peak areas. Substrate turnover was calculated by dividing product peak area by the sum of substrate and product peak areas, and the enzyme activity and the inhibitory effect of the test compound thus quantified.

SMILES	IC50
COc1ccc(OC(F)(F)F)cc1-c1cc(Cl)cc(C(CC(=O)O)c2ncc(C)s2)c1 (centres unmarked) [compound 94]	165 nM
COc1ccc(OC(F)(F)F)cc1-c1cc(F)cc(C(CC(=O)O)c2ncc(C)s2)c1 (centres unmarked) [compound 124]	275 nM
COc1ccc(F)cc1-c1ccc(OC)c(C(CC(=O)O)c2ncc(C)s2)c1 (centres unmarked) [compound 63]	1170 nM
COc1cccc(F)c1-c1cc(F)cc(C(CC(=O)O)c2nnc(C)o2)c1 (centres unmarked) [compound 179]	67 nM
COc1ccc(F)cc1-c1cccc(C(CC(=O)O)c2nccs2)c1 (centres unmarked) [compound 3]	160 nM
COc1ccc(C)cc1-c1cccc(C(CC(=O)O)c2nccs2)c1 (centres unmarked) [compound 24]	147 nM
COc1cccc(C#N)c1-c1cccc(C(CC(=O)O)c2nnc(C)o2)c1 (centres unmarked) [compound 152]	652 nM
Cc1nnc(C(CC(=O)O)c2cc(F)cc(-c3ccccc3OC(F)(F)F)c2)o1 (centres unmarked) [compound 165]	231 nM
COc1ccccc1-c1cc(Cl)cc(C(CC(=O)O)c2nnc(C)o2)c1 (centres unmarked) [compound 176]	10 nM
COc1ccc(-c2cc(F)cc(C(CC(=O)O)c3ncc(C)s3)c2)c(OC)c1 (centres unmarked) [compound 120]	199 nM
COc1ccc(-c2cc(Cl)cc(C(CC(=O)O)c3ncc(C)s3)c2)c(OC)c1 (centres unmarked) [compound 83]	53 nM
CCOc1ccccc1-c1cc(F)cc(C(CC(=O)O)c2nnc(C)o2)c1 (centres unmarked) [compound 175]	104 nM
Cc1cnc(C(CC(=O)O)c2cc(Cl)cc(-c3ccccc3OC(F)(F)F)c2)s1 (centres unmarked) [compound 95]	221 nM
COc1cc(C)cc(OC)c1-c1cccc(C(CC(=O)O)c2nnc(C)o2)c1 (centres unmarked) [compound 137]	24 nM
COc1ccc(OC)c(-c2cncc(C(CC(=O)O)c3nnc(C)o3)c2)c1 (centres unmarked) [compound 180]	3520 nM
COc1c(Cl)cccc1-c1cccc(C(CC(=O)O)c2nccs2)c1 (centres unmarked) [compound 44]	1280 nM
COc1cccc(F)c1-c1cc(Cl)cc(C(CC(=O)O)c2ncc(C)s2)c1 (centres unmarked) [compound 71]	16 nM
CCOc1ccc(C)cc1-c1cccc(C(CC(=O)O)c2nccs2)c1 (centres unmarked) [compound 25]	147 nM

SMILES	IC50
COc1cc(CO)ccc1-c1cccc(C(CC(=O)O)c2nccs2)c1 (centres unmarked) [compound 30]	201 nM
COc1c(F)cc(F)cc1-c1cc(Cl)cc(C(CC(=O)O)c2ncc(C)s2)c1 (centres unmarked) [compound 91]	131 nM
COc1ccc2c(c1-c1cc(Cl)cc(C(CC(=O)O)c3nnc(C)o3)c1)OC(C)(C)C2 (centres unmarked) [compound 157]	17 nM
Cc1nnc(C(CC(=O)O)c2cc(Cl)cc(-c3ccccc3OC(F)(F)F)c2)o1 (centres unmarked) [compound 158]	89 nM
COc1ccc(Cl)cc1-c1cc(F)cc(C(CC(=O)O)c2nnc(C)o2)c1 (centres unmarked) [compound 166]	89 nM
COc1ccc(Cl)cc1-c1cccc(C(CC(=O)O)c2nccs2)c1 (centres unmarked) [compound 1]	160 nM
CCOc1ccc(C)cc1-c1cc(Cl)cc(C(CC(=O)O)c2ncc(C)s2)c1 (centres unmarked) [compound 86]	65 nM
COc1cccc(OC)c1-c1cccc(C(CC(=O)O)c2nnc(C)o2)c1 (centres unmarked) [compound 135]	17 nM
COc1ccc(F)cc1-c1cncc(C(CC(=O)O)c2nnc(C)o2)c1 (centres unmarked) [compound 192]	7070 nM
COc1ccc(CO)cc1-c1cccc(C(CC(=O)O)c2nccs2)c1 (centres unmarked) [compound 33]	333 nM
COc1c(C)cccc1-c1cc(F)cc(C(CC(=O)O)c2ncc(C)s2)c1 (centres unmarked) [compound 128]	410 nM
COc1ccc(C(C)(C)C)cc1-c1cccc([C@@H](CC(=O)O)c2nccs2)c1 [compound 6]	3380 nM
COc1ccc(C(C)C)cc1-c1cncc(C(CC(=O)O)c2nnc(C)o2)c1 (centres unmarked) [compound 183]	1030 nM
COc1cc(OC(F)(F)F)ccc1-c1cccc(C(CC(=O)O)c2nccs2)c1 (centres unmarked) [compound 46]	1530 nM
COc1ccc(OC)c(-c2cccc(C(CC(=O)O)c3nccs3)c2)c1 (centres unmarked) [compound 21]	129 nM
COc1cccc(OC)c1-c1cncc(C(CC(=O)O)c2nnc(C)o2)c1 (centres unmarked) [compound 184]	160 nM
COc1cccc(F)c1-c1cncc(C(CC(=O)O)c2nnc(C)o2)c1 (centres unmarked) [compound 195]	3900 nM
